{
  "source": "patent US20240100065A1",
  "about": "“METHODS FOR TREATING RECEPTOR-INTERACTING PROTEIN KINASE 1-MEDIATED DISEASES” (Genzyme Corporation, priority 2022, published 2024)",
  "key": {"[1]": {"molecular_target": "T1, pS166-RIPK1 in human PBMC lysates (Homo sapiens, UniProt Q13546)", "T1 construct": "Human PBMC are a primary cell type that express endogenous RIPK kinase; endogenous in cells; host or cells: human PBMC isolated from blood of healthy participants", "T1 sequence (Q13546 1-671)": "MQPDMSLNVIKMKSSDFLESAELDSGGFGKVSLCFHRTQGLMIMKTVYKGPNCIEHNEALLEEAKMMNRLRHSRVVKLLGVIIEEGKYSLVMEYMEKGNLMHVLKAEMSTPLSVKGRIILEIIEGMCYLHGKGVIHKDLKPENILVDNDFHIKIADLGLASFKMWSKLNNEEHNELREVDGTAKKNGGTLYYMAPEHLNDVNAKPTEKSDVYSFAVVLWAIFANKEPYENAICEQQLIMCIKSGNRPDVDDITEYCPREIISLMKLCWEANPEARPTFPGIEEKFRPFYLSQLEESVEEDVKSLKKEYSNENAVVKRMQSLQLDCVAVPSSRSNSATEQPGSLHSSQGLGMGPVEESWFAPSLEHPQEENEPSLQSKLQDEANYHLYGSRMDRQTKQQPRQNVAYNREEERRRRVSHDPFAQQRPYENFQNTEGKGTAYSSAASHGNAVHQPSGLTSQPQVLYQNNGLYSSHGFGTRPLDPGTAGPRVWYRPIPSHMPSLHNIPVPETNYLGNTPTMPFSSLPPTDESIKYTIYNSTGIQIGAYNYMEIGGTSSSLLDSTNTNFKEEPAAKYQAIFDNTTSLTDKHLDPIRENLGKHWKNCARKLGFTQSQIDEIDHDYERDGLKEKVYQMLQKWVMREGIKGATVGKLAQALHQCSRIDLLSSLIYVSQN", "assay": "Inhibition of pS166-RIPK1 in PBMC lysates (peripheral target engagement)", "type": "in vivo", "conditions": "for pS166-RIPK1 percent change from baseline: Day15-T24h", "from_the_text": "Activity of RIPK1 when stimulated can be detected by an increase in autophosphorylation at serine 166 in the RIPK1 protein. Human PBMC are a primary cell type that express endogenous RIPK kinase. Therefore, the ability of Compound 1 to inhibit RIPK1 kinase activity, as measured by the inhibition of pS166-RIPK1 in prepared PBMC lysates isolated from blood samples, was investigated to assess the peripheral target engagement; pS166-RIPK1 levels in human PBMC lysates and percentage of change from baseline were calculated. In Part 1a study, six blood samples (at pre-dose, at 1, 3, 5, 8 hours on Day 1, and at 24 hours on Day 2) for pS166-RIPK1 level were collected per participant. In Part 2 study, blood samples were collected at timepoint (predose/baseline, D7 and D14 T0 (prior to dosing), at the followings timepoints at D14: T1h, T3H, T6H, T8h, then at D15/T24H and D16/T48H. Interquartile range (IQR: Q1-Q3) and geometric mean were added to the usual descriptive statistics.\nLevels of pS166-RIPK1 and percentage of change from baseline were summarized descriptively by dose level group and time point. PD population includes participants included in the safety population with no major or critical deviations related to IMP and/or pharmacodynamic (PD) measurements, for whom the PD data are considered sufficient and interpretable will be included in the pharmacodynamic population. Scatterplots were provided for pS166-RIPK1 data versus PK plasma concentration in the PK/PD population. For each participant, the percent change compared to their baseline was evaluated at multiple timepoints up to 24 hours in Part 1a and up to 48 hours in Part 2.\nThe amount of phosphorylation at serine 166 in RIPK1 protein (pS166-RIPK1) was measured in PBMC lysates prepared from blood samples. Variability in baseline values between individuals was observed across the treatment groups. For each participant, the percent change compared to their baseline was evaluated at multiple timepoints. A negative value for percent change indicates an inhibition of phosphorylation of RIPK1 at-serine166 (pS166-RIPK1)."}, "pRIPK1": {"molecular_target": "T2, pRIPK1 (Homo sapiens, UniProt Q13546)", "T2 construct": "Human PBMC are a primary cell type that express endogenous RIPK kinase; endogenous in cells; host or cells: human PBMC isolated from blood of healthy participants", "T2 sequence (Q13546 1-671)": "T1 sequence (Q13546 1-671)", "assay": "Population PK/PD analysis of pRIPK1", "type": "in vivo", "protocol": "An exploratory population pharmacokinetic/pharmacodynamic analysis of phosphorylated receptor-interacting protein kinase 1(pRIPK1) in healthy participants after single (SAD) and repeated (MAD) administrations of Compound 1 was carried out to develop a population PK/PD model from data after single and repeated doses in healthy adults and to derive individual parameters for each dose cohort.\nThe population PK/PD analysis was performed using the stochastic approximation expectation maximization (SAEM) algorithm for nonlinear mixed-effects models implemented in MONOLIX software (R1 2020). The observed plasma concentrations were used to develop the model with plasma concentrations from placebo participants and blow limit of quantitation (BLQ) plasma concentrations from verum participants being fixed to zero. Classical direct and indirect inhibitory models were evaluated. Model selection was based on objective function value Akaike and Bayesian Information criteria as well as standard goodness-of-fit plots (Psychol Methods. 2012 June; 17(2):228-43; Pharmaceutics. 2020 June; 12(6): 578.). From selected final population PK/PD model, individual PD parameters were derived and summarized by descriptive statistical analyses by study and dose level.\nA total of 433 samples in 70 participants was considered (101, 121 and 211 samples after placebo, single dose and repeated doses, respectively). No data from potential outliers were excluded. In placebo participants, a very large inter-cohort and inter-individual variability was observed. […] Selection of structural PK/PD model confirmed that a direct relationship best described the data overall."}, "[2]": {"assay": "6-month rat toxicology study (NOAEL exposure)", "type": "in vivo"}, "pS166-RIPK1": {"molecular_target": "T3, pS166-RIPK1 (Homo sapiens, UniProt Q13546)", "T3 construct": "endogenous in cells", "T3 sequence (Q13546 1-671)": "T1 sequence (Q13546 1-671)", "assay": "pS166-RIPK1 inhibition in vitro in microglia", "type": "cell-based"}, "[3]": {"assay": "Nonhuman primate toxicology study (NOAEL exposure)", "type": "in vivo", "conditions": "20 mg BID vs nonhuman primate study"}, "[4]": {"conditions": "20 mg QD vs 6-month rat toxicology study"}},
  "note": "Values joined by “and” are separate entries in the source; they are usually repeats but may differ in a detail not shown here. Equal values may be shown once. Read-outs that look alike come from different tables or passages of the source.",
  "data": [
    {"compound": "CC(C)(C(=O)N1CCOc2c(C#N)cncc2C1)C(F)F", "note": "[Compound 1, 4-(3,3-difluoro-2,2-dimethyl-propanoyl)-3,5-dihydro-2H-pyrido[3,4-f] [1,4]oxazepine-9-carbonitrile]", "values": [
      {"measurement": "Median inhibition of pS166-RIPK1", "setting": "[1]; Part 1a 20 mg, 1 hr post dose", "result": 90.43, "unit": "%"},
      {"measurement": "Median inhibition of pS166-RIPK1, peak", "setting": "[1]; Part 1a 20 mg, 5 hrs", "result": 96.63, "unit": "%"},
      {"measurement": "Median inhibition of pS166-RIPK1, maintained", "setting": "[1]; Part 1a 20 mg, over 24 hours", "result": "greater than 94%"},
      {"measurement": "Peak median inhibition of pS166-RIPK1", "setting": "[1]; Part 1a 30 mg, 3 hr, one replicate", "result": 91.48, "unit": "%"},
      {"measurement": "Median inhibition of pS166-RIPK1", "setting": "[1]; Part 1a 30 mg, 24 hours post dose, one replicate", "result": 80.16, "unit": "%"},
      {"measurement": "Peak median inhibition of pS166-RIPK1", "setting": "[1]; Part 1a 40 mg, 1 hr post dose, 4 participants", "result": 86.69, "unit": "%"},
      {"measurement": "Median inhibition of pS166-RIPK1", "setting": "[1]; Part 1a, all dose groups (10, 20, 30, 40 mg), 1 hour up to 5 hours post dose", "result": "greater than 80%"},
      {"measurement": "pS166-RIPK1 percent change from baseline", "setting": "[1]; Part 2, 15 mg BID", "result": "−80.29", "unit": "%"},
      {"measurement": "pS166-RIPK1 percent change from baseline", "setting": "[1]; Part 2, 20 mg BID", "result": "−97.76", "unit": "%"},
      {"measurement": "Inhibition of pS166-RIPK1", "setting": "[1]; Part 2, all dose level groups (10 mg QD to 20 mg BID), Ctrough Day 7 up to 24 hours post-last dosing", "result": "~90", "unit": "%"},
      {"measurement": "Emax at 10 mg", "setting": "[1]; Part 2 Day 14, 10 mg QD, 6 hours post-last morning dose, n=5, read-out: Median inhibition of pS166-RIPK1, maximal effect", "result": 99, "unit": "%"},
      {"measurement": "Emax at 15 mg", "setting": "[1]; Part 2 Day 14, 15 mg BID, 6 hours post-last morning dose, n=7, read-out: Median inhibition of pS166-RIPK1, maximal effect", "result": 92.8, "unit": "%"},
      {"measurement": "Emax at 20 mg", "setting": "[1]; Part 2 Day 14, 20 mg BID, 8 hours post-last morning dose, n=3, read-out: Median inhibition of pS166-RIPK1, maximal effect", "result": 99.2, "unit": "%"},
      {"measurement": "Emax at 20 mg", "setting": "[1]; Part 2 Day 14, 20 mg QD, 6 hours post-last morning dose, n=4, read-out: Median inhibition of pS166-RIPK1, maximal effect", "result": 96.5, "unit": "%"},
      {"measurement": "EC90", "setting": "[1]; in vivo in PBMC", "result": 0.038, "unit": "µM"},
      {"measurement": "EC91, plasma conc for 91% decrease in E0", "setting": "pRIPK1; derived typical value", "result": 23.9, "unit": "ng/mL"},
      {"measurement": "EC92, plasma conc for 92% decrease in E0", "setting": "pRIPK1; derived typical value", "result": 30.7, "unit": "ng/mL"},
      {"measurement": "EC93, plasma conc for 93% decrease in E0", "setting": "pRIPK1; derived typical value", "result": 43.3, "unit": "ng/mL"},
      {"measurement": "EC94, plasma conc for 94% decrease in E0", "setting": "pRIPK1; derived typical value", "result": 76.1, "unit": "ng/mL"},
      {"measurement": "EC95, plasma conc for 95% decrease in E0", "setting": "pRIPK1; derived typical value", "result": 0.6, "unit": "µg/mL"},
      {"measurement": "EC50", "setting": "pRIPK1; derived typical value, read-out: EC50, plasma conc for 50% decrease in E0 (converted)", "result": 0.0062, "unit": "µM"},
      {"measurement": "EC90", "setting": "pRIPK1; derived typical value, read-out: EC90, plasma conc for 90% decrease in E0", "result": 0.0197, "unit": "µg/mL"},
      {"measurement": "0(Gamma)", "setting": "pRIPK1; population PK/PD model", "result": 49.5, "unit": "%"},
      {"measurement": "E0, baseline effect", "setting": "pRIPK1; population PK/PD model", "result": 8541, "unit": "AU_signal"},
      {"measurement": "σprop", "setting": "pRIPK1; population PK/PD model", "result": 44.5, "unit": "%"},
      {"measurement": "ω(E0)", "setting": "pRIPK1; population PK/PD model", "result": 73.7, "unit": "%"},
      {"measurement": "ω(IC50)", "setting": "pRIPK1; population PK/PD model", "result": 71.4, "unit": "%"},
      {"measurement": "ω(Imax)", "setting": "pRIPK1; population PK/PD model", "result": 192, "unit": "%"},
      {"measurement": "Gamma", "setting": "pRIPK1; population PK/PD model, sigmoidal Imax", "result": 1.17},
      {"measurement": "Imax, maximum inhibitory effect on pRIPK1", "setting": "pRIPK1; population PK/PD model, typical value, SAD and MAD data", "result": "95.1% and 95%"},
      {"measurement": "IC50", "setting": "pRIPK1; population PK/PD model, typical value, SAD and MAD data, read-out: IC50, plasma concentration needed for 50% of Imax (pRIPK1) (converted)", "result": 0.00569, "unit": "µM"},
      {"measurement": "Human Cmax and AUCtau, fold lower than exposure at NOAEL", "setting": "[2]; 15 mg BID vs 6-month rat toxicology study", "result": 10, "unit": "fold"},
      {"measurement": "Human AUC0-24 h, fold lower than AUC0-24 at rat NOAEL", "setting": "[2]; 20 mg BID vs female rats", "result": "< 8", "unit": "fold"},
      {"measurement": "Human Cmax, fold lower than Cmax at rat NOAEL", "setting": "[2]; 20 mg BID vs female rats", "result": "< 10", "unit": "fold"},
      {"measurement": "Human AUC0-24, fold lower than exposure at NOAEL", "setting": "[2]; [4]", "result": 17, "unit": "fold"},
      {"measurement": "Human Cmax, fold lower than exposure at NOAEL", "setting": "[2]; [4]", "result": 15, "unit": "fold"},
      {"measurement": "Cmax", "setting": "[2]; rat, in vivo, female rats, end of Week 26, 6-month study", "result": 13.1, "unit": "µM"},
      {"measurement": "AUC(0-t)", "setting": "[2]; rat, in vivo, female rats, end of Week 26, 6-month study, read-out: AUC0-24 at the NOAEL", "result": 126, "unit": "µM·h"},
      {"measurement": "EC90", "setting": "pS166-RIPK1", "result": 0.064, "unit": "µM"},
      {"measurement": "Safety margin relative to the NOAEL exposure", "setting": "[3]", "result": 10, "unit": "fold"}
    ]}
  ]
}
